# Measurements reported in ChEMBL document CHEMBL6182853, “Design, synthesis, and biological evaluation of hypoxic-activation prodrug TH-302 derivatives” (Bioorg Med Chem Lett, 2025).
# Columns and labels:
# SK-OV-3 [1] = experiment: Antiproliferative activity against human SK-OV-3 cells assessed as suppression ratio at 5 uM by enzyme-linked immunosorbent assay relative to control; format: functional
# SK-OV-3 [2] = experiment: Antiproliferative activity against human SK-OV-3 cells assessed as suppression ratio at 50 uM by enzyme-linked immunosorbent assay relative to control; format: functional
# SK-OV-3 [3] = experiment: Anti-tumor activity against human SK-OV-3 cells by CCK-8 assay; format: functional, cell-based
# U-87 MG [4] = experiment: Antiproliferative activity against human U-87 MG cells assessed as suppression ratio at 5 uM by enzyme-linked immunosorbent assay relative to control; format: functional, U-87MG ATCC
# U-87 MG [5] = experiment: Antiproliferative activity against human U-87 MG cells assessed as suppression ratio at 50 uM by enzyme-linked immunosorbent assay relative to control; format: functional, U-87MG ATCC
# U-87 MG [6] = experiment: Anti-tumor activity against human U87 MG cells by CCK-8 assay; format: functional, cell-based, U-87MG ATCC
# SK-OV-3 [7] = experiment: Anti-tumor activity against human SK-OV-3 cells assessed as inhibition rate at 140 uM by CCK-8 assay relative to control; format: functional
# U-87 MG [8] = experiment: Anti-tumor activity against human U87 MG cells assessed as inhibition rate at 140 uM by CCK-8 assay relative to control; format: functional, U-87MG ATCC
SMILES,inhibition at 5 µM (SK-OV-3 [1]),inhibition at 50 µM (SK-OV-3 [2]),IC50 (SK-OV-3 [3]),inhibition at 5 µM (U-87 MG [4]),inhibition at 50 µM (U-87 MG [5]),IC50 (U-87 MG [6]),inhibition at 140 µM (SK-OV-3 [7]),inhibition at 140 µM (U-87 MG [8])
Cn1cnc([N+](=O)[O-])c1COP(=O)(NCCBr)NCCBr,-4%,66%,74 µM,17%,55%,98 µM,,
CCn1c(COP(=O)(NCCBr)NCCBr)cnc1[N+](=O)[O-],-13%,20%,,25%,31%,,,
CCn1cnc([N+](=O)[O-])c1COP(=O)(NCCCl)NCCCl,-16%,-2%,,1%,11%,,,
Cn1cc(COP(=O)(NCCBr)NCCBr)nc1[N+](=O)[O-],-14%,48%,,16%,32%,,,
CCCn1cc(COP(=O)(NCCBr)NCCBr)nc1[N+](=O)[O-],-32%,20%,,21%,35%,,,
Cn1c(COP(=O)(NCCBr)NCCBr)cnc1[N+](=O)[O-] [EVOFOSFAMIDE],10%,65%,62 µM,9%,68%,61 µM,,
Cn1cnc([N+](=O)[O-])c1COP(=O)(NCCCl)NCCCl,-38%,4%,,13%,22%,,,
CCCn1cnc([N+](=O)[O-])c1COP(=O)(NCCCl)NCCCl,-5%,8%,,5%,15%,,,
CCCn1c(COP(=O)(NCCBr)NCCBr)cnc1[N+](=O)[O-],-2%,77%,42 µM,30%,69%,47 µM,90%,90%
CC(C)n1c(COP(=O)(NCCBr)NCCBr)cnc1[N+](=O)[O-],-15%,10%,,24%,23%,,,
CC(C)n1cnc([N+](=O)[O-])c1COP(=O)(NCCCl)NCCCl,11%,16%,,12%,10%,,,
CCn1cnc([N+](=O)[O-])c1COP(=O)(NCCBr)NCCBr,-11%,59%,,-3%,39%,,,
CC(C)n1cc(COP(=O)(NCCBr)NCCBr)nc1[N+](=O)[O-],-16%,68%,32 µM,30%,68%,41 µM,90%,90%
CCCn1cnc([N+](=O)[O-])c1COP(=O)(NCCBr)NCCBr,3%,52%,,-3%,45%,,,
CC(C)n1cnc([N+](=O)[O-])c1COP(=O)(NCCBr)NCCBr,4%,41%,,16%,47%,,,
CCn1cc(COP(=O)(NCCBr)NCCBr)nc1[N+](=O)[O-],-3%,32%,,25%,43%,,,
